The target in one assay is mouse TAAR1 (Mus musculus (Mouse), UniProt Q923Y8). Kind of assay: Radioligand binding assay on mouse TAAR1. The settings on record: membranes of HEK-293 cells stably expressing mouse TAAR1; first value of cell mouse/rat. The procedure:
(§1) Construction of TAAR Expression Plasmids and Stably Transfected Cell Lines
(§2) For the construction of expression plasmids the coding sequences of human, rat and mouse TAAR 1 were amplified from genomic DNA essentially as described by Lindemann et al.. The Expand High Fidelity PCR System (Roche Diagnostics) was used with 1.5 mM Mg^2+ and purified PCR products were cloned into pCR2.1-TOPO cloning vector (Invitrogen) following the instructions of the manufacturer. PCR products were subcloned into the pIRESneo2 vector (BD Clontech, Palo Alto, Calif.), and expression vectors were sequence verified before introduction in cell lines.
(§3) HEK293 cells (ATCC # CRL-1573) were cultured essentially as described by Lindemann et al. (2005). For the generation of stably transfected cell lines HEK293 cells were transfected with the pIRESneo2 expression plasmids containing the TAAR coding sequences (described above) with Lipofectamine 2000 (Invitrogen) according to the instructions of the manufacturer, and 24 hrs post transfection the culture medium was supplemented with 1 mg/ml G418 (Sigma, Buchs, Switzerland). After a culture period of about 10 d clones were isolated, expanded and tested for responsiveness to trace amines (all compounds purchased from Sigma) with the cAMP Biotrak Enzyme immunoassay (EIA) System (Amersham) following the non-acetylation EIA procedure provided by the manufacturer.
Radioligand Binding Assay on Mouse TAAR1
(§4) Membrane Preparation and Radioligand Binding.
HEK-293 cells stably expressing mouse TAAR1 were maintained at 37° C. and 5% CO2 in DMEM high glucose medium, containing fetal calf serum (10%, heat inactivated for 30 min at 56° C.), penicillin/streptomycin (1%), and 375 μg/ml geneticin (Gibco). Cells were released from culture flasks using trypsin/EDTA, harvested, washed twice with ice-cold PBS (without Ca^2+ and Mg^2+), pelleted at 1,000 rpm for 5 min at 4° C., frozen and stored at −80° C. Frozen pellets were suspended in 20 ml HEPES-NaOH (20 mM, pH 7.4) containing 10 mM EDTA and homogenized with a Polytron (PT 6000, Kinematica) at 14,000 rpm for 20 s. The homogenate was centrifuged at 48,000×g for 30 min at 4° C. Subsequently, the supernatant was removed and discarded, and the pellet resuspended in 20 ml HEPES-NaOH (20 mM, pH 7.4) containing 0.1 mM EDTA using the Polytron (20 s at 14,000 rpm). This procedure was repeated and the final pellet resuspended in HEPES-NaOH containing 0.1 mM EDTA and homogenized using the Polytron. Typically, aliquots of 2 ml membrane portions were stored at −80° C. With each new membrane batch the dissociation constant (Kd) was determined via a saturation curve. The TAAR1 radioligand ^3[H]—(S)-4-[(ethyl-phenyl-amino)-methyl]-4,5-dihydro-oxazol-2-ylamine (described in WO 2008/098857) was used at a concentration equal to the calculated Kd value, that was usually around 0.7 nM, resulting in the binding of approximately 0.5% of the radioligand and a specific binding representing approximately 70% of the total binding. Nonspecific binding was defined as the amount of ^3[H]—(S)-4-[(ethyl-phenyl-amino)-methyl]-4,5-dihydro-oxazol-2-ylamine bound in the presence of 10 μM unlabeled ligand. All compounds were tested at a broad range of concentrations ([…]) in duplicates. […] The 96 deep well plates were incubated for 1 hr at 4° C. Incubations were terminated by rapid filtration through Unifilter-96 plates (Packard Instrument Company) and glass filters GF/C (Perkin Elmer) presoaked for 1 hr in polyethylenimine (0.3%) and washed 3 times with 1 ml of cold binding buffer. After addition of 45 μl of Microscint 40 (PerkinElmer) the Unifilter-96 plate was sealed and after 1 hr the radioactivity counted using a TopCount Microplate Scintillation Counter (Packard Instrument Company).

The target in the next assay is rat TAAR1 (Rattus norvegicus (Rat), UniProt Q923Y9). As to the kind of experiment: Radioligand binding assay on rat TAAR1. The settings on record: membranes of HEK-293 cells stably expressing rat TAAR1; second value of cell mouse/rat. The procedure: as §1, §2, §3
Sequence of rat TAAR1 (Q923Y9 whole entry): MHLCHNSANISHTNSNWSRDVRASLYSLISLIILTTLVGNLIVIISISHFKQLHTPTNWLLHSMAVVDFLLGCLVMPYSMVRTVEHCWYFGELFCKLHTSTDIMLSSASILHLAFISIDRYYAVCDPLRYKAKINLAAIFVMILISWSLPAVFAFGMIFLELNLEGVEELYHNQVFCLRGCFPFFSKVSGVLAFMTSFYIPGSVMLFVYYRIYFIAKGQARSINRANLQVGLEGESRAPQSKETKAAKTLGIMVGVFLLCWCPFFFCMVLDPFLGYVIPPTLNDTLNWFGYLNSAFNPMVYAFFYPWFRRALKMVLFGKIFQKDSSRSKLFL
Radioligand Binding Assay on rat TAAR1
as §4
HEK-293 cells stably expressing rat TAAR1 were maintained at 37° C. and 5% CO2 in DMEM high glucose medium, containing fetal calf serum (10%, heat inactivated for 30 min at 56° C.), penicillin/streptomycin (1%), and 375 μg/ml geneticin (Gibco). Cells were released from culture flasks using trypsin/EDTA, harvested, washed twice with ice-cold PBS (without Ca^2+ and Mg^2+), pelleted at 1,000 rpm for 5 min at 4° C., frozen and stored at −80° C. Frozen pellets were suspended in 20 ml HEPES-NaOH (20 mM, pH 7.4) containing 10 mM EDTA and homogenized with a Polytron (PT 6000, Kinematica) at 14,000 rpm for 20 s. The homogenate was centrifuged at 48,000×g for 30 min at 4° C. Subsequently, the supernatant was removed and discarded, and the pellet resuspended in 20 ml HEPES-NaOH (20 mM, pH 7.4) containing 0.1 mM EDTA using the Polytron (20 s at 14,000 rpm). This procedure was repeated and the final pellet resuspended in HEPES-NaOH containing 0.1 mM EDTA and homogenized using the Polytron. Typically, aliquots of 2 ml membrane portions were stored at −80° C. With each new membrane batch the dissociation constant (Kd) was determined via a saturation curve.
Nonspecific binding was defined as the amount of ^3-[H]-(S)-4-[(ethyl-phenyl-amino)-methyl]-4,5-dihydro-oxazol-2-ylamine bound in the presence of 10 μM unlabeled ligand. All compounds were tested at a broad range of concentrations (10 pM to 10 μM) in duplicates. […] The 96 deep well plates were incubated for 1 hr at 4° C. Incubations were terminated by rapid filtration through Unifilter-96 plates (Packard Instrument Company) and glass filters GF/C (Perkin Elmer) presoaked for 1 hr in polyethylenimine (0.3%) and washed 3 times with 1 ml of cold binding buffer. After addition of 45 μl of Microscint 40 (PerkinElmer) the Unifilter-96 plate was sealed and after 1 hr the ratioactivity counted using a TopCount Microplate Scintillation Counter (Packard Instrument Company).

Counter-ions that a name gives are not always drawn.

Sequence of mouse TAAR1 (Q923Y8 whole entry): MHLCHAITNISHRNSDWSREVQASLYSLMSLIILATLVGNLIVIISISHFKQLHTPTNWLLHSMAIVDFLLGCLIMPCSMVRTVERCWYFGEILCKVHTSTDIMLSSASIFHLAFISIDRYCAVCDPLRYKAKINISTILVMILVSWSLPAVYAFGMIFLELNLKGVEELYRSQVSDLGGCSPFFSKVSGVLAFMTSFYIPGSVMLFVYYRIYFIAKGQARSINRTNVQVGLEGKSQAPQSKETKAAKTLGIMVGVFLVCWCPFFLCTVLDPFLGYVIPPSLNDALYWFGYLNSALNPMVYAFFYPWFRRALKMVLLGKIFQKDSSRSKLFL

For the compound `Cn1nc(C(=O)Nc2ccc([C@H]3CNCCO3)cc2)cc1-c1ccccc1` [Example 18, (S)-1-methyl-N-(4-(morpholin-2-yl)phenyl)-5-phenyl-1H-pyrazole-3-carboxamide hydrochloride], the figures for the inhibition constant (Ki) at mouse TAAR1 and on rat TAAR1 were 0.0017 µM and 0.0254 µM, respectively.

For `Cn1nc(-c2ccccc2)cc1C(=O)Nc1ccc([C@@H]2CNCCO2)cc1` [Example 19, (R)-1-methyl-N-(4-(morpholin-2-yl)phenyl)-3-phenyl-1H-pyrazole-5-carboxamide hydrochloride], the values for the Ki on mouse TAAR1 and at rat TAAR1 were 0.0079 µM and 0.0028 µM, respectively.

Regarding `N#Cc1cccc(-c2cc(C(=O)Nc3ccc([C@H]4CNCCO4)cc3)n[nH]2)c1` [Example 20, (S)-5-(3-cyanophenyl)-N-(4-(morpholin-2-yl)phenyl)-1H-pyrazole-3-carboxamide hydrochloride], the inhibition constant Ki on mouse TAAR1 was 0.0022 µM; at rat TAAR1 it was 0.0074 µM.

On to `Cn1nc(-c2ccc(C#N)cc2)cc1C(=O)Nc1ccc([C@H]2CNCCO2)cc1` [Example 21, (S)-3-(4-cyanophenyl)-1-methyl-N-(4-(morpholin-2-yl)phenyl)-1H-pyrazole-5-carboxamide hydrochloride], for which the figures for the Ki on mouse TAAR1 and on rat TAAR1 were 0.0053 µM and 0.0055 µM, respectively.

For `Cn1nc(-c2cccc(C#N)c2)cc1C(=O)Nc1ccc([C@H]2CNCCO2)cc1` [Example 24, (S)-3-(3-cyanophenyl)-1-methyl-N-(4-(morpholin-2-yl)phenyl)-1H-pyrazole-5-carboxamide hydrochloride], the inhibition constant (Ki) on mouse TAAR1 is 0.0067 µM; at rat TAAR1 it was 0.0142 µM.

With `CCn1nc(-c2cccc(C#N)c2)cc1C(=O)Nc1ccc([C@H]2CNCCO2)cc1` [Example 25, (S)-3-(3-cyanophenyl)-1-ethyl-N-(4-(morpholin-2-yl)phenyl)-1H-pyrazole-5-carboxamide hydrochloride], the Ki is 0.0051 µM on mouse TAAR1 and 0.0078 µM on rat TAAR1.

`CCn1nc(-c2ccc(C#N)cc2)cc1C(=O)Nc1ccc([C@H]2CNCCO2)cc1` [Example 26, (S)-3-(4-cyanophenyl)-1-ethyl-N-(4-(morpholin-2-yl)phenyl)-1H-pyrazole-5-carboxamide hydrochloride]: the results for the inhibition constant (Ki) at mouse TAAR1 and on rat TAAR1 were 0.0734 µM and 0.0316 µM, respectively.

As to `Cc1c(C(=O)Nc2ccc([C@H]3CNCCO3)cc2)n[nH]c1-c1cccc(C#N)c1` [Example 27, (S)-5-(3-cyanophenyl)-4-methyl-N-(4-(morpholin-2-yl)phenyl)-1H-pyrazole-3-carboxamide hydrochloride], the inhibition constant (Ki) on mouse TAAR1 is 0.0021 µM; at rat TAAR1 it was 0.0135 µM.

In the case of `N#Cc1ccc(F)c(-c2cc(C(=O)Nc3ccc([C@H]4CNCCO4)cc3)n[nH]2)c1` [Example 28, (S)-5-(5-cyano-2-fluorophenyl)-N-(4-(morpholin-2-yl)phenyl)-1H-pyrazole-3-carboxamide hydrochloride], the inhibition constant (Ki) at mouse TAAR1 stood at 0.0043 µM; at rat TAAR1 it was 0.0129 µM.

With `O=C(Nc1ccc([C@H]2CNCCO2)cc1)c1ccn(-c2ccc(F)cc2)n1` [Example 29, (S)-1-(4-Fluorophenyl)-N-(4-(morpholin-2-yl)phenyl)-1H-pyrazole-3-carboxamide hydrochloride], the figures for the inhibitory constant (Ki) at mouse TAAR1 and at rat TAAR1 were 0.0011 µM and 0.0024 µM, respectively.

In the case of `O=C(Nc1ccc([C@H]2CNCCO2)cc1)c1ccnn1-c1ccccc1` [Example 30, (S)—N-(4-(Morpholin-2-yl)phenyl)-1-phenyl-1H-pyrazole-5-carboxamide hydrochloride], the Ki on mouse TAAR1 worked out at 0.143 µM; on rat TAAR1 it was 1.32 µM.

For `O=C(Nc1ccc([C@@H]2CNCCO2)cc1)c1ccn(-c2ccc(F)cc2)n1` [Example 31, (R)-1-(4-Fluorophenyl)-N-(4-(morpholin-2-yl)phenyl)-1H-pyrazole-3-carboxamide hydrochloride], the inhibition constant (Ki) on mouse TAAR1 was found to be 0.0013 µM; at rat TAAR1, 0.0024 µM.

Regarding `O=C(Nc1ccc([C@H]2CNCCO2)cc1)c1ccn(-c2ccc(Cl)cn2)n1` [Example 32, (S)-1-(5-Chloropyridin-2-yl)-N-(4-(morpholin-2-yl)phenyl)-1H-pyrazole-3-carboxamide hydrochloride], the Ki on mouse TAAR1 is 0.0007 µM; at rat TAAR1, 0.0011 µM.
